This is an account of results in ChEMBL document CHEMBL4049391, “Vicinal diaryl azole-based urea derivatives as potential cholesterol lowering agents acting through inhibition of SOAT enzymes” (Eur J Med Chem, 2017).

One experiment is filed under the species Rattus norvegicus. As to the kind of experiment: Inhibition of rat microsomal SOAT assessed as reduction in cholesteryl oleate formation from oleoyl co-enzyme A at 10 uM pretreated for 15 mins followed by oleoyl co-enzyme A addition measured after 10 mins by HPTLC method relative to control.
What is called inhibition is the change of the read-out against control, counted positive when it falls. Take `CCCCNC(=O)Nc1ccc(-c2nonc2-c2ccc(F)cc2)cc1`: the inhibition is 54.5%.

For the molecule `CC(=O)Nc1ccc(-c2sc(NC(=O)Nc3ccc(F)cc3F)nc2-c2ccc(Cl)cc2)cc1`, the inhibition came out at 2.03%.

`Cc1nc(-c2ccc(Cl)cc2)c(-c2ccc(NC(=O)Nc3ccc(F)cc3F)cc2)s1`: the inhibition came to 1.3%.

On to `CCCCNC(=O)Nc1nc(-c2ccc(C)cc2)c(-c2ccc(NC(C)=O)cc2)s1`, for which the inhibition is 5.23%.

Take `CCCCNC(=O)Nc1nc(-c2ccc(Cl)cc2)c(-c2ccc(NC(C)=O)cc2)s1`: the inhibition is 3.75%.

Consider `Cc1nc(-c2ccc(F)cc2)c(-c2ccc(NC(=O)Nc3c(C(C)C)cccc3C(C)C)cc2)s1`, for which the inhibition was found to be 42.1%.

Regarding `CCc1cccc(CC)c1NC(=O)Nc1ccc(-c2nonc2-c2ccc(F)cc2)cc1`, the inhibition is 44.9%.

Take `COc1ccc(-c2nc(C)sc2-c2ccc(NC(=O)Nc3ccccc3)cc2)cc1`: the inhibition is 11.4%.

As for `CC(=O)Nc1ccc(-c2sc(NC(=O)Nc3ccc(F)cc3F)nc2-c2ccc(F)cc2)cc1`, the inhibition turned out to be 23.3%.

Regarding `CCCCNC(=O)Nc1nc(-c2ccc(OC)cc2)c(-c2ccc(NS(C)(=O)=O)cc2)s1`, the inhibition amounted to 5.45%.

For the molecule `Cc1nc(-c2ccc(F)cc2)c(-c2ccc(NC(=O)Nc3ccccc3)cc2)s1`, the inhibition was determined as 16.8%.

On to `CCc1cccc(CC)c1NC(=O)Nc1nc(-c2ccc(C)cc2)c(-c2ccc(Cl)cc2)s1`, for which the inhibition came to 1.52%.

With `COc1ccc(-c2nc(NC(=O)Nc3ccc(F)cc3F)sc2-c2ccc(NC(C)C)cc2)cc1`, the inhibition stood at 51.7%.

For `CCCCCCCNC(=O)Nc1ccc(-c2sc(C)nc2-c2ccc(OC)cc2)cc1`, the inhibition was found to be 22.2%.

With `CCc1cccc(CC)c1NC(=O)Nc1nc(-c2ccc(F)cc2)c(-c2ccc(Cl)cc2)s1`, the inhibition was 1.58%.

For `COc1ccc(-c2nc(NC(=O)Nc3ccccc3)sc2-c2ccc(Cl)cc2)cc1`, the inhibition worked out at 56.9%.

Consider `CCCCNC(=O)Nc1nc(-c2ccc(OC)cc2)c(-c2ccc([N+](=O)[O-])cc2)s1`, for which the inhibition turned out to be 3.12%.

For `CCCCNC(=O)Nc1nc(-c2ccc(OC)cc2)c(-c2ccc(NC(C)C)cc2)s1`, the inhibition amounted to 4.67%.

Regarding `CCc1cccc(CC)c1NC(=O)Nc1nc(-c2ccc(C)cc2)c(-c2ccc([N+](=O)[O-])cc2)s1`, the inhibition stood at 1.03%.

`CCCCNC(=O)Nc1nc(-c2ccccc2)c(-c2ccccc2)s1`: the inhibition is 2.56%.

Consider `Cc1ccc(-c2nc(C)sc2-c2ccc(NC(=O)Nc3ccccc3)cc2)cc1`, for which the inhibition worked out at 13.4%.

`CCCCCCCCCCCCNC(=O)Nc1ccc(-c2sc(C)nc2-c2ccc(C)cc2)cc1`: the inhibition was 46.2%.

Turning to `CCCCNC(=O)Nc1nc(-c2ccc(Cl)cc2)c(-c2ccc(NS(C)(=O)=O)cc2)s1`, the inhibition was found to be 5.63%.

Consider `COc1ccc(-c2nc(C)sc2-c2ccc(NC(=O)Nc3cc(OC)c(OC)c(OC)c3)cc2)cc1`, for which the inhibition was 25.4%.

`COc1cc(NC(=O)Nc2ccc(-c3sc(C)nc3-c3ccc(C)cc3)cc2)cc(OC)c1OC`: the inhibition stood at 21.9%.

For `CCCCNC(=O)Nc1ccc(-c2nonc2-c2ccc(Cl)cc2)cc1`, the inhibition came to 23%.

Take `COc1cc(NC(=O)Nc2ccc(-c3sc(C)nc3-c3ccc(Cl)cc3)cc2)cc(OC)c1OC`: the inhibition came out at 24.4%.

With `Cc1ccc(-c2nc(C)sc2-c2ccc(NC(=O)Nc3ccc(F)cc3F)cc2)cc1`, the inhibition worked out at 26.6%.

As to `O=C(Nc1nc(-c2ccccc2)c(-c2ccccc2)s1)Nc1ccc(F)cc1F`, the inhibition was found to be 3.03%.

Regarding `CCCCCCCCCCCCNC(=O)Nc1ccc(-c2nonc2-c2ccc(F)cc2)cc1`, the inhibition stood at 50.1%.

As for `CCCCNC(=O)Nc1ccc(-c2nonc2-c2ccc(C)cc2)cc1`, the inhibition amounted to 2.83%.

For the molecule `CS(=O)(=O)Nc1ccc(-c2sc(NC(=O)Nc3ccc(F)cc3F)nc2-c2ccc(Cl)cc2)cc1`, the inhibition was found to be 6.39%.

For the molecule `O=C(Nc1nc(-c2ccc(Cl)cc2)c(-c2ccc([N+](=O)[O-])cc2)s1)Nc1ccc(F)cc1F`, the inhibition was determined as 3.28%.

For `CCCCCCCNC(=O)Nc1ccc(-c2sc(C)nc2-c2ccc(C)cc2)cc1`, the inhibition is 33.4%.

Take `COc1ccc(-c2nc(C)sc2-c2ccc(NC(=O)NCCN3CCOCC3)cc2)cc1`: the inhibition was determined as 21.5%.

For `CCCCNC(=O)Nc1nc(-c2ccc(F)cc2)c(-c2ccc(NC(C)=O)cc2)s1`, the inhibition came out at 15.4%.

Turning to `CCCCCCCNC(=O)Nc1nc(-c2ccc(OC)cc2)c(-c2ccc([N+](=O)[O-])cc2)s1`, the inhibition came to 1.52%.

Take `O=C(Nc1ccc(-c2nonc2-c2ccc(F)cc2)cc1)Nc1ccc(F)cc1F`: the inhibition turned out to be 47.1%.

Consider `Cc1nc(-c2ccc(F)cc2)c(-c2ccc(NC(=O)NCCN3CCOCC3)cc2)s1`, for which the inhibition was 29.3%.

For the molecule `O=C(Nc1nc(-c2ccc(F)cc2)c(-c2ccc([N+](=O)[O-])cc2)s1)Nc1ccc(F)cc1F`, the inhibition was 3.59%.

With `COc1ccc(-c2nc(NC(=O)Nc3ccc(F)cc3F)sc2-c2ccc(Cl)cc2)cc1`, the inhibition amounted to 2.98%.

Turning to `Cc1ccc(-c2nc(NC(=O)Nc3ccc(F)cc3F)sc2-c2ccc(NS(C)(=O)=O)cc2)cc1`, the inhibition was determined as 2.17%.

For `CCCCCCCCCCCCNc1ccc(-c2sc(NC(=O)Nc3ccc(F)cc3F)nc2-c2ccc(OC)cc2)cc1`, the inhibition came to 1.77%.

For the molecule `COc1ccc(-c2nc(NC(=O)Nc3ccc(F)cc3F)sc2-c2ccc([N+](=O)[O-])cc2)cc1`, the inhibition worked out at 3.4%.

Take `CCCCCCCCCCCCNc1ccc(-c2sc(NC(=O)NCCCC)nc2-c2ccc(OC)cc2)cc1`: the inhibition came to 3.36%.

With `COc1ccc(-c2nc(C)sc2-c2ccc(NC(=O)Nc3c(C(C)C)cccc3C(C)C)cc2)cc1`, the inhibition was 30.1%.

Turning to `CCCCCCCCCCCCNC(=O)Nc1nc(-c2ccc(Cl)cc2)c(-c2ccc([N+](=O)[O-])cc2)s1`, the inhibition was 1.77%.

As to `CCCCCCCNC(=O)Nc1ccc(-c2nonc2-c2ccc(F)cc2)cc1`, the inhibition came to 30.9%.

With `Cc1ccc(-c2nc(NC(=O)Nc3ccccc3)sc2-c2ccc(Cl)cc2)cc1`, the inhibition amounted to 9.58%.

For `CCCCNC(=O)Nc1nc(-c2ccc(F)cc2)c(-c2ccc([N+](=O)[O-])cc2)s1`, the inhibition was determined as 2.98%.

Turning to `CCCCCCCCCCCCNC(=O)Nc1ccc(-c2nonc2-c2ccc(Cl)cc2)cc1`, the inhibition stood at 18.5%.

Regarding `CS(=O)(=O)Nc1ccc(-c2sc(NC(=O)Nc3ccc(F)cc3F)nc2-c2ccc(F)cc2)cc1`, the inhibition worked out at 18.9%.

As for `CCCCCCCCCCCCNC(=O)Nc1ccc(-c2sc(C)nc2-c2ccc(Cl)cc2)cc1`, the inhibition stood at 5.75%.

As to `CCCCCCCCCCCCNC(=O)Nc1ccc(-c2sc(C)nc2-c2ccc(OC)cc2)cc1`, the inhibition was 27.5%.

`Cc1nc(-c2ccc(Cl)cc2)c(-c2ccc(NC(=O)Nc3ccccc3)cc2)s1`: the inhibition turned out to be 6.88%.

With `CCc1cccc(CC)c1NC(=O)Nc1ccc(-c2nonc2-c2ccc(Cl)cc2)cc1`, the inhibition was 8.25%.

Regarding `CC(=O)Nc1ccc(-c2sc(NC(=O)Nc3ccc(F)cc3F)nc2-c2ccc(C)cc2)cc1`, the inhibition worked out at 3.06%.

As for `CCCCNC(=O)Nc1ccc(-c2sc(C)nc2-c2ccc(OC)cc2)cc1`, the inhibition stood at 40%.

In the case of `CCCCNC(=O)Nc1nc(-c2ccc(F)cc2)c(-c2ccc(Cl)cc2)s1`, the inhibition worked out at 3.3%.

With `CCCCNC(=O)Nc1nc(-c2ccc(F)cc2)c(-c2ccc(NS(C)(=O)=O)cc2)s1`, the inhibition was 0.43%.

`COc1ccc(-c2nc(C)sc2-c2ccc(NC(=O)Nc3ccc(F)cc3F)cc2)cc1`: the inhibition is 22.3%.

With `CCc1cccc(CC)c1NC(=O)Nc1ccc(-c2nonc2-c2ccc(C)cc2)cc1`, the inhibition was 0.34%.

With `Cc1ccc(-c2nc(C)sc2-c2ccc(NC(=O)NCCN3CCOCC3)cc2)cc1`, the inhibition was 19%.

In the case of `CCCCNC(=O)Nc1nc(-c2ccc(C)cc2)c(-c2ccc([N+](=O)[O-])cc2)s1`, the inhibition stood at 3.86%.

In the case of `CCCCNC(=O)Nc1nc(-c2ccc(Cl)cc2)c(-c2ccc([N+](=O)[O-])cc2)s1`, the inhibition is 3.02%.

On to `Cc1ccc(-c2nc(NC(=O)Nc3ccc(F)cc3F)sc2-c2ccc([N+](=O)[O-])cc2)cc1`, for which the inhibition turned out to be 3.86%.

Take `O=C(Nc1ccc(-c2nonc2-c2ccc(Cl)cc2)cc1)Nc1ccc(F)cc1F`: the inhibition turned out to be 21.2%.

Regarding `Cc1ccc(-c2nc(NC(=O)Nc3ccc(F)cc3F)sc2-c2ccc(Cl)cc2)cc1`, the inhibition came to 3.93%.

Regarding `CCCCCCCNC(=O)Nc1ccc(-c2nonc2-c2ccc(Cl)cc2)cc1`, the inhibition worked out at 4.3%.

In the case of `CCCCCCCCCCCCNC(=O)Nc1nc(-c2ccc(F)cc2)c(-c2ccc(Cl)cc2)s1`, the inhibition was 1.91%.

As to `CCCCCCCCCCCCNC(=O)Nc1nc(-c2ccccc2)c(-c2ccccc2)s1`, the inhibition is 1.2%.

For `Cc1ccc(-c2nc(C)sc2-c2ccc(NC(=O)Nc3c(C(C)C)cccc3C(C)C)cc2)cc1`, the inhibition stood at 11.2%.

`CCCCCCCNC(=O)Nc1ccc(-c2nonc2-c2ccc(C)cc2)cc1`: the inhibition is 18.6%.

For `Cc1nc(-c2ccc(Cl)cc2)c(-c2ccc(NC(=O)Nc3c(C(C)C)cccc3C(C)C)cc2)s1`, the inhibition was 12.6%.

With `CCCCNC(=O)Nc1nc(-c2ccc(C)cc2)c(-c2ccc(NS(C)(=O)=O)cc2)s1`, the inhibition was found to be 32.7%.

Molecular target in a further experiment: not listed separately
As to the kind of experiment: Inhibition of rat microsomal SOAT assessed as reduction in cholesteryl oleate formation from oleoyl co-enzyme A pretreated for 15 mins followed by oleoyl co-enzyme A addition after 10 mins by HPTLC method.
What is called IC50 is the concentration needed to halve the response being measured. In general, pIC50 refers to the negative decadic logarithm of the IC50, by convention in mol/L. `CCCCNC(=O)Nc1ccc(-c2nonc2-c2ccc(F)cc2)cc1`: the IC50 is 12.3 µM and the pIC50 is recorded as 4.908.

Regarding `Cc1nc(-c2ccc(F)cc2)c(-c2ccc(NC(=O)Nc3c(C(C)C)cccc3C(C)C)cc2)s1`, the IC50 turned out to be 11.8 µM and the negative-log IC50 (pIC50) worked out at 4.926.

In the case of `CCc1cccc(CC)c1NC(=O)Nc1ccc(-c2nonc2-c2ccc(F)cc2)cc1`, the half-inhibitory concentration (IC50) was found to be 9.73 µM and the pIC50 is 5.011.

As for `COc1ccc(-c2nc(C)sc2-c2ccc(NC(=O)Nc3ccccc3)cc2)cc1`, the half-inhibitory concentration (IC50) turned out to be 94.8 µM and the pIC50 amounted to 4.0233.

Turning to `COc1ccc(-c2nc(NC(=O)Nc3ccc(F)cc3F)sc2-c2ccc(NC(C)C)cc2)cc1`, the 50% inhibitory concentration (IC50) was determined as 12.1 µM and the negative logarithm of the IC50 (pIC50) stood at 4.916.

For the molecule `COc1ccc(-c2nc(NC(=O)Nc3ccccc3)sc2-c2ccc(Cl)cc2)cc1`, the half-maximal inhibitory concentration (IC50) was determined as 10.7 µM and the negative logarithm of the IC50 (pIC50) stood at 4.972.

On to `CCCCCCCCCCCCNC(=O)Nc1ccc(-c2sc(C)nc2-c2ccc(C)cc2)cc1`, for which the 50% inhibitory concentration (IC50) was determined as 12.2 µM and the pIC50 is listed as 4.914.

For the molecule `CCCCCCCCCCCCNC(=O)Nc1ccc(-c2nonc2-c2ccc(F)cc2)cc1`, the 50% inhibitory concentration (IC50) is 12.4 µM and the pIC50 worked out at 4.905.

Take `CCc1cccc(CC)c1NC(=O)Nc1nc(-c2ccc(C)cc2)c(-c2ccc(N)cc2)s1`: the concentration for half-maximal inhibition (IC50) was 103 µM and the pIC50 was 3.9863.
